{"source": "patent US10017823B2", "about": "“Analytical method for increasing susceptibility of molecular targeted therapy in hepatocellular carcinoma” (CBS BIOSCIENCE, CO., LTD, priority 2013, dated 2018)", "key": {"advanced HCC": {"test_system": "advanced HCC", "conditions": "HCC patients, stated as very low; cited from earlier work"}, "hepatocellular carcinoma": {"test_system": "hepatocellular carcinoma", "assay": "Susceptibility assay in sorafenib-administered patients (tumor response according to RECIST)", "format": "in vivo", "excerpt": "The term “patient having susceptibility to sorafenib treatment” refers to a hepatocellular carcinoma patient showing response according to the sorafenib administration (i.e., tumor response). […] N Engl J Med 359: 378-390.\nIn the samples derived from 23 sorafenib-administered patients, we analyzed the relationship between the 7 marker gene expression patterns and the sorafenib efficacies. From the hierarchical clustering analysis results of FIG. 5, clustering without primary classification according to BCLC stages was performed according to expression ratio (tumor/non-tumor) of the target molecules; and then the 23 sorafenib-administered patients (i to xxiii) were correspondingly arranged thereto (FIG. 6). […] N Engl J Med 359: 378-390."}}, "data": [{"smiles": "CNC(=O)c1cc(Oc2ccc(NC(=O)Nc3ccc(Cl)c(C(F)(F)F)c3)cc2)ccn1", "note": "[sorafenib]", "values": [{"measurement": "response rate of sorafenib", "setting": "advanced HCC", "value": "about 3%"}, {"measurement": "tumor response according to RECIST", "setting": "hepatocellular carcinoma; patients viii, x, xi of the 23 sorafenib-administered HCC patients", "value": "partial response"}, {"measurement": "susceptibility to the sorafenib treatment (RECIST tumor response)", "setting": "hepatocellular carcinoma; remaining 20 of the 23 sorafenib-administered HCC patients", "value": "not susceptible"}]}]}
